In US20070219238A1 (priority 2004, published 2007):
Where two headings read alike, the source gives them in different places.

System: Phytophthora infestans
Type: in vivo
Details: individual active compound, potted tomato plants, protective, evaluated after 6 days

Structure (SMILES)	Efficacy in % of the untreated control (50 ppm in the spray liquor)	Efficacy in % of the untreated control (100 ppm in the spray liquor)
CC1CCN(c2c(-c3c(F)cc(F)cc3F)c(Cl)nc3ncnn23)CC1 [I, 5-chloro-7-(4-methylpiperidin-1-yl)-6-(2,4,6-trifluorophenyl)[1,2,4]triazolo [1,5-a]pyrimidine]	0%	
[Cl-].[Cu+2].[Cu+2].[OH-].[OH-].[OH-] [II-1, copper oxychloride]	0%	22%
O=C([O-])[O-].[Cu+2].[Cu+2].[OH-].[OH-] [II-2, (basic) copper carbonate]	0%	11%
[Cu+2].[OH-].[OH-] [II-3, copper hydroxide]	11%	22%
CC1CCN(c2c(-c3c(F)cccc3Cl)c(Cl)nc3ncnn23)CC1 [comparative compound A]	0%	
C[C@H](Nc1c(-c2c(F)cc(F)cc2F)c(Cl)nc2ncnn12)C(F)(F)F [comparative compound B]	0%	
